The test system of assay [1] is BJ. Briefly: BJ-TERT fibroblast viability loss – cell-based, RAS-independent, luminescence, dose response (AID 1933). As to conditions: Homo sapiens. Format: functional.
In assay [2] the test system is BJ. As to the kind of experiment: cells. As to conditions: Homo sapiens. Type of assay: functional, cell-based.
Assay [3] concerns the target Luciferin 4-monooxygenase (Photinus pyralis, UniProt P08659). Briefly: inhibition of purified Photinus pyralis luciferase – biochemical, luminescence, dose response (AID 1891).
Assay [4] in a line: Luminescence Cell-Based Dose Confirmation HTS to Identify Inhibitors of Platelet Dense Granule Release. [Related pubchem assays: 1663 (Primary HTS), 1678 (Summary of Project)]. Format: functional.
Assay [5] deals with BJ. Briefly: BJ-TERT-LT-ST fibroblast viability loss – cell-based, RAS-independent, luminescence, dose response (AID 1935).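 Note: BJ fibroblasts immortalized with TERT plus LT and ST oncogenes.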 As to conditions: Homo sapiens. Format: functional.
Assay [6] in a line: DRD fibroblast viability loss – cell-based, non-viral oncogenic, luminescence, dose response (AID 1934). As to conditions: Homo sapiens. Format: functional.
The nature of assay [7]: HEK-293T viability loss after treatment – luminescence, T-cell screen hits, cytotoxicity control for TCR NF-kB inhibitor project, dose response (AID 489026).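 Note: cells exposed to compound about 14 hours before the viability readout.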 Type of assay: functional, cell-based.
The nature of assay [8]: blockers of HIV-1 envelope-mediated cell-cell fusion – cherry-pick, dose response (AID 652057). Type of assay: functional, cell-based.
Assay [9] is described as follows: viability loss in CEM21 cells – cell-based, CellTiter-Glo luminescence, cherry-picked, cytotoxicity control for viral fusion inhibitor project, dose response (AID 652042).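 Note: potency for signal decrease meaning cytotoxicity.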 Format: functional.
Assay [10] in a line: blockers of HIV-1 ZM109 envelope-driven cell-cell fusion – HeLa effector, CEM target cells, luciferase, cherry-pick, dose response (AID 652058).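 Note: luciferase signal from HIV-1 Env mediated cell-cell fusion of effector and target cells.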 Format: functional, cell-based.
The target in a further assay is Paired box protein Pax-8 (Homo sapiens, UniProt Q06710). As to the kind of experiment: PAX8 transcriptional activity inhibition in RMG-I – RMG-I cells, luciferase, cherry-pick, dose response (AID 687027).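 Note: luciferase reporter driven by Pax8 target thyroperoxidase promoter measured by SteadyGlo luminescence.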 Format: functional, cell-based.
Sequence of Paired box protein Pax-8 (Q06710 whole entry, the tested form may be a part): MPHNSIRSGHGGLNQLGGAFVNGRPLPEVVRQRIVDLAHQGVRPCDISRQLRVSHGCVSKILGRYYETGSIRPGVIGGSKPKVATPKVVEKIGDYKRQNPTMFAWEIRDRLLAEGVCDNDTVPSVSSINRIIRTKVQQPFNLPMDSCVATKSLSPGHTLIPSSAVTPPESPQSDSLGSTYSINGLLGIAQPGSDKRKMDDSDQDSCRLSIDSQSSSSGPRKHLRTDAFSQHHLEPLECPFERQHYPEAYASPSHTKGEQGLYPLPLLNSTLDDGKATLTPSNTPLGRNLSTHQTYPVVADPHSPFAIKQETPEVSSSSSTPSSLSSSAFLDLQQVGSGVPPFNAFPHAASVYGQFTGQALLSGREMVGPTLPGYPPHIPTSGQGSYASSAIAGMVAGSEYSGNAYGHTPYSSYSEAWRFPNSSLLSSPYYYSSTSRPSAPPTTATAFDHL
Assay [11] in a line: off-target signal loss in HeLa-CEM21 co-culture – HeLa F-luc CTL cells, cherry-picked, counter-screen for HIV-1 Env fusion inhibitor project, dose response (AID 652040).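 Note: potency for signal decrease marking cytotoxic or nonspecific inhibition.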 Format: functional, cell-based. (Counterscreens check selectivity or assay interference.)
A short description of assay [12]: HIV-1 AD8 envelope cell-cell fusion blockers – cherry-pick, dose response (AID 652062).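 Note: luciferase signal from cell-cell fusion driven by HIV-1 clade B AD8 Env; potency is for inhibitors of fusion seen as a drop in luminescence.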 Type of assay: functional, cell-based.
A short description of assay [13]: A549 cell cytotoxicity, dose response, cytotoxicity control, plate reader, cherry-pick, antagonist series (AID 743412). Format: functional, cell-based.
Assay [14] in a line: toxicity toward HepG2 liver cells – cell-based, plate reader, cherry-pick, antagonist series, cytotoxicity control, dose response (AID 743416). Format: functional.
A short description of assay [15]: blockers of bursicon-stimulated LGR2 cAMP reporter – cell-based, HEK293, CRE-luciferase reporter, cherry pick, set 2, dose response (AID 743343).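 Note: transfected cells were stimulated with diluted bursicon conditioned medium after compound addition.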 Type of assay: functional. (In general: In a reporter assay the amount or activity of a reporter protein is the signal.)
Assay [16] in a line: general cell-killing toxicity readout – plate reader, dry powder samples, cytotoxicity control for PAX8 inhibitor project, dose response (AID 743021). Type of assay: functional, cell-based.
Assay [17] can be described thus: blockade of melanocortin 4 receptor signaling – cell-based, plate reader, cherry pick, counter-screen for LGR2 antagonist project, dose response (AID 743444).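 Note: transfected HEK 293 cells stimulated with alpha-MSH peptide; potency of inhibitors of the alpha-MSH evoked signal.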 Format: functional.
Assay [18] is described as follows: viability loss in HEK293 cells – cell-based, plate reader, cherry-picked samples, cytotoxicity control, dose response (AID 743446). Format: functional.
A short description of assay [19]: CTGF mRNA reduction in DLD1 cells – cell-based, DLD1 colon cancer, RT-qPCR, cherry-pick, dose response (AID 1053122). Format: functional. As to conditions: Cancer cell lines. In general terms: In qPCR the cycle at which signal appears reflects the starting amount.
A short description of assay [20]: Mycobacterium tuberculosis BioA enzyme inhibitor Measured in Biochemical System Using Plate Reader - 2163-02_Inhibitor_Dose_DryPowder_Activity.
Assay [21] can be described thus: reduction of Shn3 3'UTR-driven luciferase in osteoblasts – cell-based, Clone20 osteoblasts, firefly luciferase, cherry-picked, dose response (AID 624132).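 Note: firefly luciferase luminescence from reporter carrying the Shn3 3'UTR in osteoblasts.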 Type of assay: functional.
Assay [22] is described as follows: loss of viability in HepG2 cells – cell-based, CellTiter-Glo, cherry-picked, cytotoxicity control for Shn3 inhibitor project, dose response (AID 624134). Type of assay: functional.
The nature of assay [23]: non-specific 3'UTR reporter inhibition in Clone20-Shn3RL – cell-based, Renilla luciferase, cherry-picked, counter-screen for Shn3 inhibitor project, dose response (AID 624133). Format: functional.
Assay [24] can be described thus: Shn3 3'UTR reporter signal decrease – cell-based, Clone20 osteoblasts, firefly luciferase, cherry-pick, set 2, Schnurri-3 inhibitor project, dose response (AID 720490).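 Note: actives lower the luminescence signal as inhibitors.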 Type of assay: functional.
Assay [25] can be described thus: A Cell-Based Confirmatory Screen for Compounds that Inhibit VEEV, TC-83 (8). Format: functional.
In another assay the test system is Vero. Briefly: viability of Vero cells under compound – cytotoxicity control for flavivirus capping enzyme inhibitors (AID 588742). Format: functional. As to conditions: Chlorocebus sabaeus.
Assay [26] concerns the target T1, Histone-lysine N-methyltransferase NSD2 (Homo sapiens, UniProt O96028).
T1 sequence (O96028 whole entry): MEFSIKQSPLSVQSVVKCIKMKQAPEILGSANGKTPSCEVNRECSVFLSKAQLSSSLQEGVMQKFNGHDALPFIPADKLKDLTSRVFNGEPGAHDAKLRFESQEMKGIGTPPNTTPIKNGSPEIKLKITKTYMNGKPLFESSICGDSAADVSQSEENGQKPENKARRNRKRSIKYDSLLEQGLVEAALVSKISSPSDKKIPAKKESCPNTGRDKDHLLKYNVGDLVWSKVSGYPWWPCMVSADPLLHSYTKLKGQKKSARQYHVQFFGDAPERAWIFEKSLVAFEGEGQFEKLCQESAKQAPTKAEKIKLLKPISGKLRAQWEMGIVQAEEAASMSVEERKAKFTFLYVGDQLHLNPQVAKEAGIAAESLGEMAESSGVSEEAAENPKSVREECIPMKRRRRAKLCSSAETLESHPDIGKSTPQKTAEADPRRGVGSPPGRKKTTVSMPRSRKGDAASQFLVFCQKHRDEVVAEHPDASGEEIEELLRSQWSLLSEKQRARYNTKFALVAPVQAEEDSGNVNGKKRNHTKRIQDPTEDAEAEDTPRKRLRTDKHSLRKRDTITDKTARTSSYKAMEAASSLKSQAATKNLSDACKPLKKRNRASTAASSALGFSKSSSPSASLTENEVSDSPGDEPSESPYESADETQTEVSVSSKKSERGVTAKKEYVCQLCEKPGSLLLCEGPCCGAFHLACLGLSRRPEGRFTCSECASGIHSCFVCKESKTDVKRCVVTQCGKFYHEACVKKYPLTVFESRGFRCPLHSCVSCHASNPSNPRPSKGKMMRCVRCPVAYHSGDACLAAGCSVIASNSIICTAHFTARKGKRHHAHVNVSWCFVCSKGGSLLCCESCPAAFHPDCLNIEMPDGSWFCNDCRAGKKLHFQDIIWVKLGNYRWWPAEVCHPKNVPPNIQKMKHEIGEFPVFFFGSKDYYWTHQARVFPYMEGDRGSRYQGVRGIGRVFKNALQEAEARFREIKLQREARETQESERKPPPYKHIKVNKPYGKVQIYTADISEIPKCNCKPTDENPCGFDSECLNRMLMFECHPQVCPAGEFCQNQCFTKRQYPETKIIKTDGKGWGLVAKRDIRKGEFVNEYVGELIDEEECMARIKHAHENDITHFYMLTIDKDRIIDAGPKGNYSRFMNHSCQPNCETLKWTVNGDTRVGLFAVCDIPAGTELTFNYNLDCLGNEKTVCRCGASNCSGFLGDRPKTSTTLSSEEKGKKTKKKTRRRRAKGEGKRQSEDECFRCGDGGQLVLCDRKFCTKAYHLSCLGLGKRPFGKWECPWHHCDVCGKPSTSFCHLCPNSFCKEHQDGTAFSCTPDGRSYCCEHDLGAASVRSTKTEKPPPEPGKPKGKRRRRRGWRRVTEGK
Format: biochemical.

For assay [27], the target named is Tyrosyl-DNA phosphodiesterase 2 (Homo sapiens, UniProt O95551). As to the kind of experiment: potency against TDP2 phosphodiesterase activity – biochemical, epi absorbance, IC50, dose response (AID 743297).
Sequence of Tyrosyl-DNA phosphodiesterase 2 (O95551 whole entry): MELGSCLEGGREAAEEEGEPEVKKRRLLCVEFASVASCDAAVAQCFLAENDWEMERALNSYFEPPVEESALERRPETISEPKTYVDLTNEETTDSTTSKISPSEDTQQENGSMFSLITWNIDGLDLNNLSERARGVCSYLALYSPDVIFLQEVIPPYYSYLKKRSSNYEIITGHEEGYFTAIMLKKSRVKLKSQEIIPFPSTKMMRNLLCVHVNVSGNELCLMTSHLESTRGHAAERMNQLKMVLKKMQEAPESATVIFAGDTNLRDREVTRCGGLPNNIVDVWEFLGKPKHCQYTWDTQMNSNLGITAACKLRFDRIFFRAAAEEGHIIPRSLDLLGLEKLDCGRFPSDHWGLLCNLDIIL
Assay [28] is described as follows: human cervical cancer cell viability loss – 24 h, plate reader, dry powder, cytotoxicity control, dose response (AID 686928). Format: functional, cell-based. As to conditions: HeLa.
For assay [29], the target named is Endoplasmic reticulum aminopeptidase 1 (Homo sapiens, UniProt Q9NZ08). Briefly: inhibition of human ERAP1 enzyme activity – biochemical, cherry-pick, set 2, plate reader, dose response (AID 743314).
Sequence of Endoplasmic reticulum aminopeptidase 1 (Q9NZ08 whole entry): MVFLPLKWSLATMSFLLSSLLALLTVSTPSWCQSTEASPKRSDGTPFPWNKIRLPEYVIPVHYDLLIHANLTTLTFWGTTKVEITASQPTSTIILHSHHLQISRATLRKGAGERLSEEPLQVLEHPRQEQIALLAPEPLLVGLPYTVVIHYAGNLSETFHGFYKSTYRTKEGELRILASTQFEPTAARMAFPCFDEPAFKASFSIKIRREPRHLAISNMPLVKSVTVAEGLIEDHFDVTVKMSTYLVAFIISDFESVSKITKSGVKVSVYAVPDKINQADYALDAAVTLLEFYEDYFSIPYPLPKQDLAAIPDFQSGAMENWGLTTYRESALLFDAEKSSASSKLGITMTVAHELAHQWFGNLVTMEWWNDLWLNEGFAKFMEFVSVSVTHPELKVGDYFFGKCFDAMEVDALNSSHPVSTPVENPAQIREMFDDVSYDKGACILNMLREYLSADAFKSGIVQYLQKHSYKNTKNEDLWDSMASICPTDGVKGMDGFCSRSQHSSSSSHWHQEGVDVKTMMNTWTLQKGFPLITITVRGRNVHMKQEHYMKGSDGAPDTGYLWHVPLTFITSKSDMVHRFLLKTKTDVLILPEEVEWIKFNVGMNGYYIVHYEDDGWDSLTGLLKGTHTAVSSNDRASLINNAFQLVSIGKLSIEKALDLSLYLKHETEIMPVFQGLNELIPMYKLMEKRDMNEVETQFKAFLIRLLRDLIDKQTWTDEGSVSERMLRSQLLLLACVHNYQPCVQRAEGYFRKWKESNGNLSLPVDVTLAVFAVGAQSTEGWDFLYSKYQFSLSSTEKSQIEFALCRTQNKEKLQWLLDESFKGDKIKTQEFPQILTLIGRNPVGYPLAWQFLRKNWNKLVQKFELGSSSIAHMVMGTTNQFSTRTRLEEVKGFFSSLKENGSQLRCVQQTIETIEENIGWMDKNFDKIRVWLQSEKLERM
The target in another assay is fMet-Leu-Phe receptor (Homo sapiens, UniProt P21462). As to the kind of experiment: formyl peptide receptor binders – dose response (AID 519). Format: functional.
Sequence of fMet-Leu-Phe receptor (P21462 whole entry): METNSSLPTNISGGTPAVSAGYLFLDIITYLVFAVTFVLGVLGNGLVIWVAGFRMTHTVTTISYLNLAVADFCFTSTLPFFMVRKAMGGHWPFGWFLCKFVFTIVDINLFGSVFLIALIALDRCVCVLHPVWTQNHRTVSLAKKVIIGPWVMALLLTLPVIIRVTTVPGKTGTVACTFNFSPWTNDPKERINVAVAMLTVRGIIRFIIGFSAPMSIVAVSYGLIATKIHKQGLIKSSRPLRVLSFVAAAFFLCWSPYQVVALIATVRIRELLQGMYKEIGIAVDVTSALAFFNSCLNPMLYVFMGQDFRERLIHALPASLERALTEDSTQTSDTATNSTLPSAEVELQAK
The next assay concerns the target T2, Cytochrome P450 1A2 (Homo sapiens, UniProt P05177).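 Note: PubChem cytochrome P450 panel assay, CYP1A2 panel member.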
T2 sequence (P05177 whole entry): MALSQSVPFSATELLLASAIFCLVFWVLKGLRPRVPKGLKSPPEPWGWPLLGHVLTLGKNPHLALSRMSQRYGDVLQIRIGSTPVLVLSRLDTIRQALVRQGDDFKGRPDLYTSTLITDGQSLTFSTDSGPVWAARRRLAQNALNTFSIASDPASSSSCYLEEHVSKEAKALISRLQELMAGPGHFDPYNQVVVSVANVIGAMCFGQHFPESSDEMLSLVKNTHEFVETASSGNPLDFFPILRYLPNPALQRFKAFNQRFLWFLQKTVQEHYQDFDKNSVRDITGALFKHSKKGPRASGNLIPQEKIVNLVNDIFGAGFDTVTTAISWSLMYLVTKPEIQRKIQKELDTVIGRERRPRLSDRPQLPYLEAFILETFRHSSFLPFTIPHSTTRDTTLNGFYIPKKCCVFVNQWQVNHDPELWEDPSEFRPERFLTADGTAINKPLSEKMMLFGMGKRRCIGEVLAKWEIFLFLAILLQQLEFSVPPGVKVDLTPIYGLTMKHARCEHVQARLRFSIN

The structures appear in SMILES notation. Calls of active or inactive are those of the source.

Sequence of Luciferin 4-monooxygenase (P08659 whole entry): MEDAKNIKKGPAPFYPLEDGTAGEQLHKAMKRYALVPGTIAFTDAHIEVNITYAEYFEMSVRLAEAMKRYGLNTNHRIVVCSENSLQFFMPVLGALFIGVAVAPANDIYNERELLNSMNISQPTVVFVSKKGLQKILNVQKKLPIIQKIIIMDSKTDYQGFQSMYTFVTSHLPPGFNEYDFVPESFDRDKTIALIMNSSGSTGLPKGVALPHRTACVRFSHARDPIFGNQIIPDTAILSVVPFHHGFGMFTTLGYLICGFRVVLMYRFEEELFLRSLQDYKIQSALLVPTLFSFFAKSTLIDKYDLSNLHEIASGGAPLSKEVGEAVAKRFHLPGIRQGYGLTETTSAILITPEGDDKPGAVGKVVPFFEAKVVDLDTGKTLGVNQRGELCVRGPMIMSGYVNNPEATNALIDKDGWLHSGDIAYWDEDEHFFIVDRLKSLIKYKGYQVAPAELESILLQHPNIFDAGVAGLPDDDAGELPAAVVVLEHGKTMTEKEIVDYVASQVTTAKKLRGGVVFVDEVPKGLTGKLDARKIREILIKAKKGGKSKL

By EC50 is commonly meant the concentration giving half of the maximal effect. Usually IC50 stands for the point on the concentration scale where inhibition reaches its midpoint. As a reminder, the AC50 is the midpoint of the concentration-response curve, whichever way the signal moves. Regarding `COc1ccccc1C(=O)Nc1nc2ccccc2s1`, the EC50 in the assay with BJ [1] is 8.4 µM (active); in the assay on BJ [2], 5.6 µM (active); in assay [3], 0.296 µM (active); in assay [4], 3.96 µM (active); with BJ [5], 15.8 µM (active); in assay [6] it was 5.93 µM (active). Further, in [7], the IC50 is > 80 µM (inactive). Further, the AC50 is 2.05 µM (active) in assay [8]; 13.7 µM (active) in assay [9]; 10.9 µM (active) in assay [10]; 3.69 µM (active) on Paired box protein Pax-8; 2.59 µM (active) in [11]; 2.44 µM (active) in [12]. In addition, the concentration at half-maximal activity (AC50) was 3.04 µM (active) in assay [13]; 3.64 µM (active) in assay [14]; 0.121 µM (active) in assay [15]; 10.5 µM (active) in assay [16]; 0.172 µM (active) in [17]; 3.61 µM (active) in [18].
For the compound `O=C(c1cccc(F)c1)N1CCCCN2[C@@H](CO)[C@H](c3ccc(C#CC4(O)CCCC4)cc3)[C@@H]2C1`, the AC50 in assay [19] was 1.16 µM (active).
Take `O=C(Nc1cccc(Cl)c1)N1CCN(c2ccccc2)CC1`: the AC50 in [20] is 11 µM (active).
Regarding `Cn1c(=O)c2c(nc(NCc3ccco3)n2CCc2ccccc2)n(C)c1=O`, the concentration at half-maximal activity (AC50) in assay [21] is 2.34 µM (active); in assay [22], 50.9 µM (active); in assay [23] it was 18.3 µM (active); in assay [24], 2.27 µM (active).
On to `CNCCCN(C)Cc1nc2ccc([N+](=O)[O-])cc2c(=O)n1-c1ccccc1`, for which, in assay [25], the IC50 was < 0.5 µM (active).
Broadly, the CC50 is the concentration that lowers cell viability or growth by half. On to `O=C1C=C(Nc2cccnc2)c2ccccc2C1=O`, for which, in the assay on Vero, the CC50 was 12.1 µM (active). Besides, the AC50 in assay [26] was 3.7 µM (active). The IC50 in [27] is 4.03 µM (active).
For the compound `COc1ccc(-n2cnc(=O)c3ccccc32)cc1Cl`, the AC50 in [28] is > 160 µM (inactive).
Consider `Cc1cc(=O)oc2c(CN3CCN(CCO)CC3)c(O)ccc12`, for which the AC50 in assay [29] is 9.03 µM (active).
As a reminder, the Ki is the dissociation constant of the complex between target and ligand, obtained from inhibition or displacement. For `Cc1nn2c(O)c(C#N)c(-c3ccccc3)nc2c1-c1ccccc1`, the Ki at fMet-Leu-Phe receptor is > 66.7 µM (inactive). The AC50 at Cytochrome P450 1A2 was 20 µM (inconclusive).

(Values after ChEMBL document CHEMBL1201862, “PubChem BioAssay data set” (2004).)
